Results: patent US20250122191A1, “COMPOUNDS AS BCL-2 INHIBITORS” (Fochon Biosciences, Ltd, priority 2021, published 2025)

Tested on: Toledo cells
Assay: Cell proliferation assay (MTS), Toledo cells
Assay type: cell-based
Conditions: Homo sapiens, 72 h
Protocol: MTS testing kit was purchased from Promega (Madison, WI, USA). The RPMI-1640, Fetal bovine serum and Penicillin-Streptomycin were purchased from BI (Biological Industries, Beit Haemek, Israel). Dimethyl sulfoxide (DMSO) was purchased from Sigma (St. Louis., MO, USA). Toledo (ATCC catalog #: CRL-2631) cells were cultured in RPMI-1640 supplemented with Penicillin-Streptomycin and 10% FBS.
To investigate whether a compound is able to inhibit the activity of BCL-2 in cells, a mechanism-based assay using Toledo lines was developed. In this assay, the inhibition of BCL-2 was reflected by the inhibition of cell proliferation of Toledo cells. Cells were plated into 96-well plates at the optimized cell density of 30000 cells/well. Plates were incubated at 37° C., with 5% CO2 for 4 h. Compounds were serially diluted and added to the plates with the final concentrations of 10000, 3333.3, 1111.1, 370.4, 123.5, 41.2, 13.7, 4.6 and 1.5 nM. Plates were incubated at 37° C., with 5% CO2 for 72 h. 20 μl MTS was added into each well and the plates were incubated at 37° C., with 5% CO2 for exactly 2 h. The absorbance was measured by a microplate reader at 490 nm. IC50 was calculated using GraphPad Prism 5.0 software.

SMILES	IC50 [nM]
CCOc1nc2[nH]cc(F)c2cc1Oc1cc(N2CCC3(CC2)CC(N2CCN(Cc4ccc(OC)cn4)C[C@H]2c2ccccc2C(C)C)C3)ccc1C(=O)NS(=O)(=O)c1cnc(NC[C@H]2CC[C@](C)(O)CC2)c([N+](=O)[O-])c1 [Example 121, 2-((6-ethoxy-3-fluoro-1H-pyrrolo[2,3-b]pyridin-5-yl)oxy)-N-((6-((((1r,4r)-4-hydroxy-4-methylcyclohexyl)methyl)amino)-5-nitropyridin-3-yl)sulfonyl)-4-(2-((R)-2-(2-isopropylphenyl)-4-((5-methoxypyridin-2-yl)methyl)piperazin-1-yl)-7-azaspiro[3.5]nonan-7-yl)benzamide]	1
CCOc1nc2[nH]cc(F)c2cc1Oc1cc(N2CCC3(CC2)CC(N2CCN(C4CC4)C[C@H]2c2ccccc2C(C)C)C3)ccc1C(=O)NS(=O)(=O)c1cnc(NC[C@H]2CC[C@](C)(O)CC2)c([N+](=O)[O-])c1 [Example 144, 4-(2-((R)-4-cyclopropyl-2-(2-isopropylphenyl)piperazin-1-yl)-7-azaspiro[3.5]nonan-7-yl)-2-((6-ethoxy-3-fluoro-1H-pyrrolo[2,3-b]pyridin-5-yl)oxy)-N-((6-((((1r,4r)-4-hydroxy-4-methylcyclohexyl)methyl)amino)-5-nitropyridin-3-yl)sulfonyl)benzamide]	1
COc1nc2[nH]cc(F)c2cc1Oc1cc(N2CCC3(CC2)CC(N2CCN(C(C)=O)C[C@H]2c2ccccc2C(C)C)C3)ccc1C(=O)NS(=O)(=O)c1cnc(NC[C@H]2CC[C@](C)(O)CC2)c([N+](=O)[O-])c1 [Example 146, 4-(2-((R)-4-acetyl-2-(2-isopropylphenyl)piperazin-1-yl)-7-azaspiro[3.5]nonan-7-yl)-2-((3-fluoro-6-methoxy-1H-pyrrolo[2,3-b]pyridin-5-yl)oxy)-N-((6-((((1r,4r)-4-hydroxy-4-methylcyclohexyl)methyl)amino)-5-nitropyridin-3-yl)sulfonyl)benzamide]	1
CCOc1nc2[nH]cc(F)c2cc1Oc1cc(N2CCC3(CC2)CC(N2CCN(C(C)=O)C[C@H]2c2ccccc2C(C)C)C3)ccc1C(=O)NS(=O)(=O)c1cnc(NC[C@H]2CC[C@](C)(O)CC2)c([N+](=O)[O-])c1 [Example 147, 4-(2-((R)-4-acetyl-2-(2-isopropylphenyl)piperazin-1-yl)-7-azaspiro[3.5]nonan-7-yl)-2-((6-ethoxy-3-fluoro-1H-pyrrolo[2,3-b]pyridin-5-yl)oxy)-N-((6 ((((1r,4r)-4-hydroxy-4-methylcyclohexyl)methyl)amino)-5-nitropyridin-3-yl)sulfonyl)benzamide]	1
CC(=O)N1CCN(C2CC3(CCN(c4ccc(C(=O)NS(=O)(=O)c5cnc(NC[C@H]6CC[C@](C)(O)CC6)c([N+](=O)[O-])c5)c(Oc5cnc6[nH]cc(F)c6c5)c4)CC3)C2)[C@H](c2ccccc2C(C)C)C1 [Example 148, 4-(2-((R)-4-acetyl-2-(2-isopropylphenyl)piperazin-1-yl)-7-azaspiro[3.5]nonan-7-yl)-2-((3-fluoro-1H-pyrrolo[2,3-b]pyridin-5-yl)oxy)-N-((6-((((1r,4r)-4-hydroxy-4-methylcyclohexyl)methyl)amino)-5-nitropyridin-3-yl)sulfonyl)benzamide]	1
CCOc1nc2[nH]cc(F)c2cc1Oc1cc(N2CCC3(CC2)CC(N2CCN(Cc4ccncc4)C[C@H]2c2ccccc2C(C)C)C3)ccc1C(=O)NS(=O)(=O)c1cnc(NC[C@H]2CC[C@](C)(O)CC2)c([N+](=O)[O-])c1 [Example 238, 2-((6-ethoxy-3-fluoro-1H-pyrrolo[2,3-b]pyridin-5-yl)oxy)-N-((6-((((1r,4r)-4-hydroxy-4-methylcyclohexyl)methyl)amino)-5-nitropyridin-3-yl)sulfonyl)-4-(2-((R)-2-(2-isopropylphenyl)-4-(pyridin-4-ylmethyl)piperazin-1-yl)-7-azaspiro[3.5]nonan-7-yl)benzamide]	1
COc1nc2[nH]cc(F)c2cc1Oc1cc(N2CCC3(CC2)CC(N2CCN(Cc4ccc5c(c4)OCCO5)C[C@H]2c2ccccc2C(C)C)C3)ccc1C(=O)NS(=O)(=O)c1cnc(NC[C@H]2CC[C@](C)(O)CC2)c([N+](=O)[O-])c1 [Example 321, 4-(2-((R)-4-((2,3-dihydrobenzo[b][1,4]dioxin-6-yl)methyl)-2-(2-isopropylphenyl)piperazin-1-yl)-7-azaspiro[3.5]nonan-7-yl)-2-((3-fluoro-6-methoxy-1H-pyrrolo[2,3-b]pyridin-5-yl)oxy)-N-((6-((((1r,4r)-4-hydroxy-4-methylcyclohexyl)methyl)amino)-5-nitropyridin-3-yl)sulfonyl)benzamide]	1
CC(C)c1ccccc1[C@@H]1CN(Cc2ccc3c(c2)OCCO3)CCN1C1CC2(CCN(c3ccc(C(=O)NS(=O)(=O)c4cnc(NC[C@H]5CC[C@](C)(O)CC5)c([N+](=O)[O-])c4)c(Oc4cnc5[nH]cc(F)c5c4)c3)CC2)C1 [Example 322, 4-(2-((R)-4-((2,3-dihydrobenzo[b][1,4]dioxin-6-yl)methyl)-2-(2-isopropylphenyl)piperazin-1-yl)-7-azaspiro[3.5]nonan-7-yl)-2-((3-fluoro-1H-pyrrolo[2,3-b]pyridin-5-yl)oxy)-N-((6-((((1r,4r)-4-hydroxy-4-methylcyclohexyl)methyl)amino)-5-nitropyridin-3-yl)sulfonyl)benzamide]	1
CC(C)c1ccccc1[C@@H]1CN(Cc2ccc(S(C)(=N)=O)cc2)CCN1C1CC2(CCN(c3ccc(C(=O)NS(=O)(=O)c4cnc(NC[C@H]5CC[C@](C)(O)CC5)c([N+](=O)[O-])c4)c(Oc4cnc5[nH]cc(F)c5c4)c3)CC2)C1 (stereo partly drawn) [Example 337, 2-((3-fluoro-1H-pyrrolo[2,3-b]pyridin-5-yl)oxy)-N-((6-((((1r,4r)-4-hydroxy-4-methylcyclohexyl)methyl)amino)-5-nitropyridin-3-yl)sulfonyl)-4-(2-((2R)-2-(2-isopropylphenyl)-4-(4-(S-methylsulfonimidoyl)benzyl)piperazin-1-yl)-7-azaspiro[3.5]nonan-7-yl)benzamide]	1
CC(C)c1ccccc1[C@@H]1CN(Cc2ccc(OC(F)F)cc2)CCN1C1CC2(CCN(c3ccc(C(=O)NS(=O)(=O)c4cnc(NC[C@H]5CC[C@](C)(O)CC5)c([N+](=O)[O-])c4)c(Oc4cnc5[nH]cc(F)c5c4)c3)CC2)C1 [Example 343, 4-(2-((R)-4-(4-(difluoromethoxy)benzyl)-2-(2-isopropylphenyl)piperazin-1-yl)-7-azaspiro[3.5]nonan-7-yl)-2-((3-fluoro-1H-pyrrolo[2,3-b]pyridin-5-yl)oxy)-N-((6-((((1r,4r)-4-hydroxy-4-methylcyclohexyl)methyl)amino)-5-nitropyridin-3-yl)sulfonyl)benzamide]	1
